Assays:
B16 [1] = assay: Compound was tested for growth Inhibition against B16 melanoma cells; assay type: functional, cell-based, Mus musculus
[2] = Water solubility at 37 degree C.; assay type: ADME; conditions: buffer
[3] = Compound was tested for growth Inhibition against human TIG-1-20 fibroblast cells; assay type: functional, cell-based
B16 [4] = assay: Compound was tested for cytotoxic activity against […] melanoma cells; assay type: functional, cell-based, Mus musculus

CC1CN1CC(O)CC1CC1 (centres undefined)
IC50 (B16 [1]): 5.4e-6 M,mol dme-3
S [2]: < 0.001 M,mol dme-3
IC50 [3]: 0.000018 M,mol dme-3

CC1CN1CC(O)CC1CC1COC(COC(CO)CO)COC(CO)CO (centres undefined)
S [2]: > 0.01 M,mol dme-3
IC50 (B16 [4]): 0.00005 M,mol dme-3
IC50 [3]: 0.000068 M,mol dme-3

CC1CN1CC(O)CC1CC1COC(CO)CO (centres undefined)
S [2]: 0.0081 M,mol dme-3
IC50 (B16 [4]): 0.000029 M,mol dme-3
IC50 [3]: 0.000041 M,mol dme-3

Source: ChEMBL document CHEMBL1152069, “Synthesis and biological properties of carboranylaziridines bearing cascade polyols” (Bioorg Med Chem Lett, 1996)
